In ChEMBL document CHEMBL1201862, “PubChem BioAssay data set” (2004):
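Briefly, cells in 96-well plates were exposed to five compound concentrations for 48 h, and endpoints were estimated by linear interpolation. Here, GI50 denotes the concentration required for 50% inhibition of growth.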 Active and inactive are the calls of the source. No stated cut-off is given here; in the data, active = GI50 up to about 1.1 µM and inactive = higher.

Key:
Assay in all cases: NCI tumour cell line growth inhibition, 48 h
HCC 2998 = tested on: HCC 2998
U-251 = tested on: U-251
SF-539 = tested on: SF-539
OVCAR-8 = tested on: OVCAR-8
SK-OV-3 = tested on: SK-OV-3
ACHN = tested on: ACHN
SW-620 = tested on: SW-620
MCF7 = tested on: MCF7
HCT-116 = tested on: HCT-116
HOP-92 = tested on: HOP-92
DU-145 = tested on: DU-145
SN12C = tested on: SN12C
OVCAR-3 = tested on: OVCAR-3
KM12 = tested on: KM12
COLO 205 = tested on: COLO 205
786-0 = tested on: 786-0
A549 = tested on: A549
T47D = tested on: T47D
CCRF-CEM = tested on: CCRF-CEM
OVCAR-4 = tested on: OVCAR-4

Compound | GI50 (HCC 2998) | GI50 (U-251) | GI50 (SF-539) | GI50 (OVCAR-8) | GI50 (SK-OV-3) | GI50 (ACHN) | GI50 (SW-620) | GI50 (MCF7) | GI50 (HCT-116) | GI50 (HOP-92) | GI50 (DU-145) | GI50 (SN12C) | GI50 (OVCAR-3) | GI50 (KM12) | GI50 (COLO 205) | GI50 (786-0) | GI50 (A549) | GI50 (T47D) | GI50 (CCRF-CEM) | GI50 (OVCAR-4)
O=C(O)/C=C/C(=O)N1Cc2cc3ccccc3nc2C1 | > 100 µM (inactive) | > 100 µM (inactive) | > 100 µM (inactive) | > 100 µM (inactive) | > 100 µM (inactive) | > 100 µM (inactive) | > 100 µM (inactive) | > 100 µM (inactive) | > 100 µM (inactive) | > 100 µM (inactive) | > 100 µM (inactive) | > 100 µM (inactive) | > 100 µM (inactive) | > 100 µM (inactive) | > 100 µM (inactive) | > 100 µM (inactive) | > 100 µM (inactive) | > 100 µM (inactive) |  | 
O=C(O)CNCP(=O)(O)O [GLYPHOSATE] |  | > 100 µM (inactive) | > 100 µM (inactive) | > 100 µM (inactive) | > 100 µM (inactive) | > 100 µM (inactive) | > 100 µM (inactive) | > 100 µM (inactive) | > 100 µM (inactive) | > 100 µM (inactive) | > 100 µM (inactive) | > 100 µM (inactive) | > 100 µM (inactive) | > 100 µM (inactive) | > 100 µM (inactive) | > 100 µM (inactive) | > 100 µM (inactive) | > 100 µM (inactive) | > 100 µM (inactive) | > 100 µM (inactive)
COC1CC(C)(N)C(O)C(C)O1 (centres undefined) | > 100 µM (inactive) | > 100 µM (inactive) | > 100 µM (inactive) | > 100 µM (inactive) | > 100 µM (inactive) | > 100 µM (inactive) | > 100 µM (inactive) | > 100 µM (inactive) | > 100 µM (inactive) | > 100 µM (inactive) | > 100 µM (inactive) | > 100 µM (inactive) | > 100 µM (inactive) | > 100 µM (inactive) | > 100 µM (inactive) | > 100 µM (inactive) | > 100 µM (inactive) | > 100 µM (inactive) | > 100 µM (inactive) | 
NCCC1CN(C(=O)OCc2ccccc2)c2ccccc21 (centres undefined) | 16.6 µM (inactive) | 14.3 µM (inactive) | 3.44 µM (inactive) | 8.17 µM (inactive) | > 42.4 µM (inactive) | 22.6 µM (inactive) | 6.67 µM (inactive) | 1.01 µM (active) | 3.59 µM (inactive) | 5.45 µM (inactive) | 17.3 µM (inactive) | 13.2 µM (inactive) | 16.7 µM (inactive) | 17.8 µM (inactive) | 16.3 µM (inactive) | 16.1 µM (inactive) | 27.5 µM (inactive) | 3.13 µM (inactive) |  | 20.4 µM (inactive)
Cc1ccc([N+](=O)[O-])cc1S(=O)(=O)Nc1ccc(C2=NOC(c3ccccc3)C2)cc1 (centres undefined) | 9.04 µM (inactive) |  | 9.77 µM (inactive) | 18.3 µM (inactive) | 11.5 µM (inactive) | 13.5 µM (inactive) | 6 µM (inactive) | 3.25 µM (inactive) | 7.08 µM (inactive) | 15.7 µM (inactive) | 12 µM (inactive) | 12.9 µM (inactive) | 3.33 µM (inactive) | 3.57 µM (inactive) | 6.7 µM (inactive) | 13.8 µM (inactive) | 6.89 µM (inactive) | 5.77 µM (inactive) | 9.48 µM (inactive) | 1.32 µM (inactive)
